Where a name gives a salt, the structure may show the parent alone.
Legend:
Male Sprague-Dawley rats [1] = experiment: Rat Carrageenan Foot Pad Edema Test; format: in vivo; details: dosed orally one hour before carrageenan, foot volume three hours after carrageenan
Description: Rat Carrageenan Foot Pad Edema Test
The carrageenan foot edema test was performed with materials, reagents and procedures essentially as described by Winter, et al., (Proc. Soc. Exp. Biol. Med., 111, 544 (1962)). Male Sprague-Dawley rats were selected in each group so that the average body weight was as close as possible. Rats were fasted with free access to water for over sixteen hours prior to the test. The rats were dosed orally (1 mL) with compounds suspended in vehicle containing 0.5% methylcellulose and 0.025% surfactant, or with vehicle alone. One hour later a subplantar injection of 0.1 mL of 1% solution of carrageenan/sterile 0.9% saline was administered and the volume of the injected foot was measured with a displacement plethysmometer connected to a pressure transducer with a digital indicator. Three hours after the injection of the carrageenan, the volume of the foot was again measured. The average foot swelling in a group of drug-treated animals was compared with that of a group of placebo-treated animals and the percentage inhibition of edema was determined (Otterness and Bliven, Laboratory Models for Testing NSAIDs, in Non-steroidal Anti-Inflammatory Drugs, (J. Lombardino, ed. 1985)).

Male Sprague-Dawley rats [2] = experiment: Rat Carrageenan-induced Analgesia Test; format: in vivo; details: dosed orally, inhibition of hyperalgesic foot withdrawal, three hours after carrageenan
Description: Rat Carrageenan-induced Analgesia Test
The rat carrageenan analgesia test was performed with materials, reagents and procedures essentially as described by Hargreaves, et al., (Pain, 32, 77 (1988)). Male Sprague-Dawley rats were treated as previously described for the Carrageenan Foot Pad Edema test. Three hours after the injection of the carrageenan, the rats were placed in a special plexiglass container with a transparent floor having a high intensity lamp as a radiant heat source, positionable under the floor. After an initial twenty minute period, thermal stimulation was begun on either the injected foot or on the contralateral uninjected foot. A photoelectric cell turned off the lamp and timer when light was interrupted by paw withdrawal. The time until the rat withdraws its foot was then measured. The withdrawal latency in seconds was determined for the control and drug-treated groups, and percent inhibition of the hyperalgesic foot withdrawal determined.

[3] = In vitro conversion of prodrugs by S9 liver fractions; format: in vitro ADME; details: purified S9 fractions (3 mg/ml), compound 10 ug/ml, 37° C., pH 7.2, 90 minutes, HPLC
Description: IN VITRO CONVERSION OF PRODRUGS
The conversion of the prodrugs by S9 liver fractions was determined by the following method. The S9 liver-fraction suspension (IIAM) was thawed and the suspension was stirred by vortex. The suspension was mixed with 12M urea at 1:7, v:v, (yielding […] final concentration) and further stirred by vortex. The S9 suspension solution was partially purified by solid phase extraction (Vac-Elut apparatus:C18 columns (Varian #1210-2001)) eluting with acetonitrile. The fractions were mixed by vortex and concentrated to dryness under nitrogen (no heat). The fractions were resuspended in 100 μl acetonitrile:phosphate buffer (8.3 mM, pH 7.2) (20:80).
The compounds were dissolved in water (0.2 ml, 10 ug/ml) and incubated at 37° C. (pH 7.2, 90 minutes) with purified S9 fractions (0.2 ml, 3 mg/ml). Conversion of the prodrug to the active COX-2 inhibitor was followed by HPLC (Beckmann System Gold, Novapak C18 column (3.9×150 mm), acetonitrile:phosphate buffer (8.3 mM, pH 7.2) (20:80-40:60), UV detection 240 nm). Quantitation of the conversion of the prodrug was determined by measurement of integrated HPLC peak area.

melting point	Compound	also measured
136.9 to 141 °C	CCC(=O)NS(=O)(=O)c1ccc(-c2c(-c3ccccc3)noc2C(F)F)cc1 [Example 54, N-[[4-[5-(Difluoromethyl)-3-phenylisoxazol-4-yl]phenyl]sulfonyl]propanamide]	
173 to 175 °C	COc1ccc(-c2cc(C(F)F)nn2-c2ccc(S(=O)(=O)NC(C)=O)cc2)cc1F [Example 46, N-[[4-[3-(Difluoromethyl)-5-(3-fluoro-4-methoxyphenyl)-1H-pyrazol-1-yl]phenyl]sulfonyl]acetamide]	
173.2 °C	CCCC(=O)NS(=O)(=O)c1ccc(-c2c(-c3ccccc3)noc2C)cc1 [Example 24, N-[[4-(5-Methyl-3-phenylisoxazol-4-yl)phenyl]sulfonyl]butanamide]	
269.8 to 272 °C	CC(=O)NS(=O)(=O)c1ccc(-n2nc(C(F)(F)F)cc2-c2ccc(Cl)cc2)cc1.[Na]	
94 to 103 °C	CC(=O)NS(=O)(=O)c1ccc(-c2c(-c3ccccc3)noc2CO)cc1 [Example 74, N-[[4-[5-Hydroxymethyl-3-phenylisoxaxzol-4-yl]phenyl]sulfonyl]acetamide]	
	CCCC(=O)NS(=O)(=O)c1ccc(-c2c(-c3ccccc3)noc2C)cc1 [Example 25, N-[[4-(5-Methyl-3-phenylisoxazol-4-yl)phenyl]sulfonyl]butanamide, Sodium Salt]	RAT PAW EDEMA % Inhibition @ 30 mg/kg body weight (Male Sprague-Dawley rats [1]): 60%; ANALGESIA % Inhibition @ 10 mg/kg body weight (Male Sprague-Dawley rats [2]): 33%; Metabolism of Prodrugs: Parent (% remaining) [3]: 0.8%
144 to 145 °C	CC(=O)NS(=O)(=O)c1ccc(-c2c(-c3cccc(F)c3)noc2C)cc1 [Example 13, N-[[4-[3-(3-Fluorophenyl)-5-methylisoxazol-4-yl]phenyl]sulfonyl]acetamide]	RAT PAW EDEMA % Inhibition @ 30 mg/kg body weight (Male Sprague-Dawley rats [1]): 58%; ANALGESIA % Inhibition @ 10 mg/kg body weight (Male Sprague-Dawley rats [2]): 61.5%
158.4 to 165.4 °C	Cc1onc(-c2ccccc2)c1-c1ccc(S(=O)(=O)NC(=O)CCC(=O)O)cc1 [Example 58, 4-[[[4-(5-Methyl-3-phenylisoxazol-4-yl)phenyl]sulfonyl]amino]-4-oxobutanoic Acid]	
208.8 to 210.2 °C	Cc1onc(-c2ccccc2)c1-c1ccc(S(=O)(=O)NC(=O)c2ccccc2)cc1 [Example 19, N-[[4-(5-Methyl-3-phenylisoxazol-4-yl)phenyl]sulfonyl]benzamide]	
131.3 to 132.2 °C	CCOCC(=O)NS(=O)(=O)c1ccc(-c2c(-c3ccccc3)noc2C)cc1 [Example 31, 2-Ethoxy-N-[[4-(5-methyl-3-phenylisoxazol-4-yl)phenyl]sulfonyl]acetamide]	
190.5 to 191.1 °C	Cc1onc(-c2ccccc2)c1-c1ccc(S(=O)(=O)NC(=O)C(C)(C)C)cc1 [Example 21, 2,2-Dimethyl-N-[[4-(5-methyl-3-phenylisoxazol-4-yl)phenyl]sulfonyl]propanamide]	
220.7 to 221 °C	CC(=O)NS(=O)(=O)c1ccc(-c2oc(C)nc2-c2ccccc2)cc1 [Example 48, N-[[4-(2-Methyl-4-phenyloxazol-5-yl)phenyl]sulfonyl]acetamide]	
168 to 171 °C	Cc1onc(-c2ccccc2)c1-c1ccc(S(=O)(=O)NC(=O)OC(C)(C)C)cc1 [Example 62, 1,1-Dimethylethyl N-[[4-(5-methyl-3-phenylisoxazol-4-yl)phenyl]sulfonyl]carbamate]	
183 to 191.1 °C	COc1ccc2c(c1F)CSc1c(C(F)(F)F)nn(-c3ccc(S(=O)(=O)NC(C)=O)cc3)c1-2.[Na]	
250 to 252 °C	CCCC(=O)NS(=O)(=O)c1ccc(-n2cc(C(F)(F)F)nc2-c2cccnc2C)cc1 [Example 9, N-[[4-[2-(2-Methylpyridin-3-yl)-4-(trifluoromethyl)-1H-imidazol-1-yl]phenyl]sulfonyl]butanamide]	
278 to 281 °C	CC(=O)[N-]S(=O)(=O)c1ccc(-n2cc(C(F)(F)F)nc2-c2cncc(C)c2)cc1.[Na+] [Example 4, N-[[4-[2-(5-Methylpyridin-3-yl)-4-(trifluoromethyl)-1H-imidazol-1-yl]phenyl]sulfonyl]acetamide, Sodium Salt]	
174 °C	CNS(=O)(=O)c1ccc(-n2cccc2-c2ccc(F)cc2)cc1 [Example 78, 4-[2-(4-Fluorophenyl)-1H-pyrrol-1-yl]-N-methylbenzenesulfonamide]	
	CCC(=O)NS(=O)(=O)c1ccc(-c2c(-c3ccccc3)noc2C)cc1 [Example 18, N-[[4-(5-Methyl-3-phenylisoxazol-4-yl]phenyl]sulfonyl]propanamide, Sodium Salt]	Metabolism of Prodrugs: Parent (% remaining) [3]: 3.3%
	CC(=O)NS(=O)(=O)c1ccc(-c2c(-c3cccc(F)c3)noc2C)cc1 [Example 14, N-[[4-[3-(3-Fluorophenyl)-5-methylisoxazol-4-yl]phenyl]sulfonyl]acetamide, Sodium Salt]	RAT PAW EDEMA % Inhibition @ 30 mg/kg body weight (Male Sprague-Dawley rats [1]; Sodium Salt): 65%; ANALGESIA % Inhibition @ 10 mg/kg body weight (Male Sprague-Dawley rats [2]; Sodium Salt): 41%; Metabolism of Prodrugs: Parent (% remaining) [3]: 63.4%
121 to 122 °C	CNS(=O)(=O)c1ccc(C2=C(c3ccc(F)cc3)CCC2)cc1 [Example 64, 4-[2-(4-Fluorophenyl)cyclopenten-1-yl]-N-methylbenzenesulfonamide]	
217 to 218 °C	CCC(=O)NS(=O)(=O)c1ccc(-n2cc(C(F)(F)F)nc2-c2cccnc2C)cc1 [Example 84, N-[[4-[2-(2-Methylpyridin-3-yl)-4-trifluoromethylimidazol-1-yl]phenyl]sulfonyl]propanamide]	
161.9 to 162.7 °C	CC(=O)NS(=O)(=O)c1ccc(-n2nc(C(F)(F)F)cc2-c2ccc(Cl)cc2)cc1 [Example 37, N-[[4-[5-(4-Chlorophenyl)-3-(trifluoromethyl)-1H-pyrazol-1-yl]phenyl]sulfonyl]acetamide]	
